This series can be described thus: Human HepG2 cell viability assay in 384 well format. Format: toxicity, cell-based. Further details: dose 125 nL, time 70.5 hour; cytotoxicity at 70.5 h: concentration not given beside the values. The following applies: HepG2 cells, read-out: Inhibition.
On to `N#Cc1cccnc1N1CCN(C(=O)c2cccs2)CC1`, for which the cytotoxicity at 70.5 h was -3%.
As for `CCCc1noc(CCCC(=O)N2CCCC(n3ccnc3C)C2)n1` (stereo not drawn), the figure is -2.44%; as for `CCOc1ccc(CNC(=O)N2CCCC(CO)C2)cc1F` (stereo not drawn), 0.25%; as for `Cc1nccn1C1CCCN(C(=O)CCc2nc(C(C)C)no2)C1` (stereo not drawn), -11.2%.
With `CCCc1noc(CCC(=O)N2CCCC(n3ccnc3C)C2)n1` (stereo not drawn), the cytotoxicity at 70.5 h is -9.38%.
As for `CN(Cc1ccco1)C(=O)NCc1ccnc(SC(C)(C)C)c1`, the cytotoxicity at 70.5 h was -8.67%.
The value for `O=C(NC1CCCCNC1=O)c1cc2ccccc2[nH]c1=O` (stereo not drawn) was -15.7%; that for `O=C(NCc1ccc2c(c1)OCCO2)N1CCC(CO)CC1` was 4.7%; that for `NC(=O)C1CCN(C(=O)NCc2ccc3c(c2)OCCO3)CC1` was -9.87%.
With `CC(=O)NCC1CCN(C(=O)NCCc2ccc3c(c2)OCO3)CC1`, the cytotoxicity at 70.5 h was -17.3%.
As for `CC(=O)NCC1CCN(C(=O)NCc2ccc3c(c2)OCCO3)CC1`, the figure is -16.3%; as for `CCC(C)(CNC(=O)Nc1nncs1)N1CCOCC1` (stereo not drawn), -13.4%.
On to `CCc1nc(C)c(C(=O)NCCNc2ncnc3sccc23)s1`, for which the cytotoxicity at 70.5 h amounted to 4.06%.
As for `CCc1ncncc1C(=O)NCCNc1ncnc2sccc12`, the figure is -21.7%.
`N#Cc1ccc(CN2CCN(C(=O)CCn3cncn3)CC2)cc1`: the cytotoxicity at 70.5 h was determined as 6.05%.
The value for `CCCc1noc(CCC(=O)N2CCN(C)CC2c2ccccc2)n1` (stereo not drawn) was -15%; that for `Cc1ccc(C(=O)NC2CCCCNC2=O)c(=O)[nH]1` (stereo not drawn) was -6.58%.
The value for `CN(c1ccc(F)cc1)S(=O)(=O)c1cc2c(c(C(=O)O)c1)OCCO2` was -10.5%; that for `CN(c1c(F)cccc1F)S(=O)(=O)c1cc2c(c(C(=O)O)c1)OCCO2` was 9.94%; that for `CN(c1ccc(F)c(F)c1)S(=O)(=O)c1cc2c(c(C(=O)O)c1)OCCO2` was -7.51%.
The value for `O=S(=O)(Cc1ccccc1)c1nnc(N2CCCC2)s1` was -2.76%; that for `Cc1nc(C2CCCN(C(=O)C3=NN(C(C)C)C(=O)CC3)C2)no1` (stereo not drawn) was -9.12%; that for `O=S(=O)(Cc1ccccc1)c1nnc(N2CCOCC2)s1` was -9.13%.
For `CN(CC1CCC1)C(=O)Nc1cccnc1-n1cncn1`, the cytotoxicity at 70.5 h is -12.4%.
`CC(C)Oc1ncc(C(=O)N2CCc3ccc(O)cc3C2)cc1Cl`: the cytotoxicity at 70.5 h is 15.8%.
For the molecule `O=C(Nc1cccnc1-n1cncn1)N(C1CCCC1)C1CC1`, the cytotoxicity at 70.5 h is -7.6%.
As for `Cc1nnc(C(C)Nc2cccc(COCCc3ccccc3)c2)o1` (stereo not drawn), the cytotoxicity at 70.5 h is -8.73%.
The value for `CN1CCC(C(=O)N2CCCN(c3cccnn3)CC2)C1` (stereo not drawn) was -14.6%; that for `CC(=O)NCCCSC1CCN(c2c(F)cccc2F)C1=O` (stereo not drawn) was 22.9%; that for `CC(=O)NCCCSC1CCCN(c2ccccc2F)C1=O` (stereo not drawn) was -6.35%.
Consider `Cc1ccnc(NCc2cccc(OCCN3CCOCC3)c2)n1`, for which the cytotoxicity at 70.5 h worked out at 32.7%.
With `N#Cc1cn(CCCN2CCc3ccccc3C2)c(=O)[nH]c1=O`, the cytotoxicity at 70.5 h was -5.98%.
As to `CS(=O)(=O)Nc1cccc(CNC(=O)CCC(=O)c2cccs2)c1`, the cytotoxicity at 70.5 h was -3.24%.
The value for `Cc1cccnc1NC(=O)C1CCCN(c2cccc(C(F)(F)F)n2)C1` (stereo not drawn) was -0.942%; that for `O=C(NC1CC1)C1CCN(c2cccc(C(F)(F)F)n2)CC1` was -1.37%; that for `CC(=O)NC1CCCN(Cc2ccc(OCc3ccccn3)cc2)C1` (stereo not drawn) was -6.3%.
Consider `O=C(CN1CCS(=O)(=O)CC1)NC1CCCOc2ccccc21` (stereo not drawn), for which the cytotoxicity at 70.5 h was -3.91%.
As for `CC(C(=O)N1CCC(Cc2ccc(F)cc2)CC1)n1ccnc1` (stereo not drawn), the figure is 20.4%.
As for `O=C1NCC(C(=O)N(Cc2cccc(Br)c2)C2CC2)N1` (stereo not drawn), the cytotoxicity at 70.5 h was 26.3%.
As for `O=C(CCn1ccc2ccccc21)N1CCC(Nc2cccnn2)CC1`, the figure is -3.47%; as for `CCOCC(=O)N(Cc1ccccn1)Cc1ccccc1C`, -4.52%.
The value for `CS(=O)(=O)Cc1ccc(Cl)cc1NCc1ccccc1F` was 27.6%; that for `Cc1ccccc1CN(Cc1ccccn1)C(=O)CNS(C)(=O)=O` was 25.2%; that for `COC(=O)c1ccc(F)c(Cn2nc(C)cc2C)c1` was 4.73%.
In the case of `O=c1[nH]nc(SCC2CCCCO2)n1C1CC1` (stereo not drawn), the cytotoxicity at 70.5 h amounted to 28.8%.
The value for `CSCC(=O)N(Cc1ccccn1)Cc1ccccc1C` was -4.08%; that for `Clc1cncc(NCc2cccc(OCCN3CCOCC3)c2)n1` was -8.21%; that for `CC(CS(C)(=O)=O)N(C(=O)c1ccc(Cl)s1)C1CC1` (stereo not drawn) was -9.46%.
In the case of `CC(c1ccco1)N(C(=O)NCc1ccon1)C1CC1` (stereo not drawn), the cytotoxicity at 70.5 h stood at 56.7%.
On to `Cc1noc(C)c1CNC(=O)N(C1CC1)C(C)c1ccco1` (stereo not drawn), for which the cytotoxicity at 70.5 h was -3.98%.
For `Cc1cc(CNc2ccc(CC(=O)N(C)c3ccccc3)cc2)no1`, the cytotoxicity at 70.5 h came to 0.0494%.
As for `CC(C)c1noc(C(C)S(=O)(=O)Cc2nc(C3CC3)no2)n1` (stereo not drawn), the figure is -4.5%; as for `O=C(NCCCN1CCOCC1)c1ccnc(OCc2ccccc2)c1`, -1.25%.
The value for `Cn1ccc2c(C(=O)NCCCN3CCCC3)cccc21` was -3.04%; that for `COc1cc(C2(C(=O)NCC(=O)NC3CC3)CC2)ccc1C` was -5.44%; that for `COc1cc(C2(C(=O)NC3CCC4(CC3)OCCO4)CC2)ccc1C` was -4.1%.
The value for `OC(CNCCn1cccn1)COc1ccc(Br)cc1` (stereo not drawn) was -5.72%.
In the case of `CC(C)n1cc(CN2CCCN(C(=O)c3cccnc3O)CC2)cn1`, the cytotoxicity at 70.5 h was -2.94%.
With `CC(C)n1cc(CN2CCCN(C(=O)c3cccn3C)CC2)cn1`, the cytotoxicity at 70.5 h was -2.47%.
For the molecule `CCc1ccc(C(=O)N2CCCC2c2c(C)nn(C)c2OC)o1` (stereo not drawn), the cytotoxicity at 70.5 h is -6.13%.
As for `COc1c(C2CCCN2C(=O)c2cccn2C)c(C)nn1C` (stereo not drawn), the cytotoxicity at 70.5 h came out at 13.8%.
For the molecule `COc1c(C2CCCN2C(=O)c2ccnn2C)c(C)nn1C` (stereo not drawn), the cytotoxicity at 70.5 h is -4.02%.
The value for `CCn1ccnc1CN1CCN(Cc2cccnc2)CC1C` (stereo not drawn) was 7.86%; that for `CNc1cc(N2CCCC2CNCc2ccc(C)o2)ncn1` (stereo not drawn) was 5.47%; that for `CCn1ccnc1CN1CCN(CCc2ccncc2)CC1C` (stereo not drawn) was 7.35%.
Turning to `O=C(C1CC1)N1CCCC1c1nnc2n1CCCCC2` (stereo not drawn), the cytotoxicity at 70.5 h worked out at 0.772%.
With `NC(=O)c1ccc(CN2CCC(N3CCCC3)CC2)cc1`, the cytotoxicity at 70.5 h is -2.01%.
Consider `NC(=O)c1cccc(CN2CCOC(Cn3cccn3)C2)c1` (stereo not drawn), for which the cytotoxicity at 70.5 h came to 8.52%.
As for `CS(=O)(=O)CCn1ccc(NC(=O)CCc2cccc(F)c2)n1`, the figure is -3.41%; as for `CNc1cc(N2CCCC2CNCc2cccnc2C)ncn1` (stereo not drawn), 4.98%.
The value for `Cc1cc(F)ccc1CCNC(=O)NCC(C)N1CCOCC1` (stereo not drawn) was 3.68%; that for `CC(C)C(NC(=O)NCC1CC1)c1nnc2n1CCC2` (stereo not drawn) was 3.11%; that for `CCc1cc(CNC(=O)N2CCN(c3nc(C)c(C)s3)CC2)on1` was -3.25%.
The value for `CC(C)COCCCNC(=O)c1cccnc1N1CCOCC1` was 4.2%; that for `Cc1nc(C)n(C2CCCN(C(=O)CCn3cncn3)C2)n1` (stereo not drawn) was -0.0645%; that for `Cc1nc(C)n(C2CCCN(C(=O)CCc3cscn3)C2)n1` (stereo not drawn) was 37%.
With `Cc1cc(C)n(CC2CN(Cc3ccc4c(c3)OCCO4)CCO2)n1` (stereo not drawn), the cytotoxicity at 70.5 h is -3.91%.
The value for `CCC(CNC1CCN(C(=O)N(C)C)CC1)Oc1ccccc1C` (stereo not drawn) was 27.1%.
Turning to `CCC(CNC1CCN(C(C)=O)CC1)Oc1ccccc1Cl` (stereo not drawn), the cytotoxicity at 70.5 h came out at 5.02%.
The value for `Cc1cnn(CCNCC(=O)NC2(C#N)CCCC2)c1` was -0.423%.
Turning to `Cc1sc2nc(C(F)(F)F)nc(N3CCN(C)CC3)c2c1C`, the cytotoxicity at 70.5 h was -4.17%.
As for `CCCc1nc(C)c(C(=O)NC2CCN(c3ncccn3)CC2)s1`, the figure is -9.16%; as for `N#CC1(NC(=O)COC(=O)Cn2cccn2)CCCC1`, -7.86%; as for `OC1CCN(c2ccccc2NCc2nc(-c3cccs3)no2)CC1`, -10.7%.
As for `OC1CCN(c2ccccc2NCc2nc(-c3ccoc3)no2)CC1`, the figure is 36.2%; as for `CC(NCc1ccncc1)c1cc2c(cc1Br)OCCO2` (stereo not drawn), -4.83%.
As for `CC(Cn1cccn1)NCC(=O)NC1(C#N)CCCCC1` (stereo not drawn), the figure is 21.3%; as for `CCOC(C)C(=O)N(C)C1CCN(c2ccc(OC)cc2)CC1` (stereo not drawn), -4.16%.
Consider `O=C(NS(=O)(=O)Cc1ccc(F)cc1)C1CCOc2ccccc21` (stereo not drawn), for which the cytotoxicity at 70.5 h was -9.19%.
As for `Cc1ncc2c(n1)CN(Cc1nc3c(F)cccc3[nH]1)CC2`, the figure is -2.01%.
Take `Fc1cccc2[nH]c(CN3CCc4cncnc4C3)nc12`: the cytotoxicity at 70.5 h is -7.7%.
The value for `CSC(C)C(=O)N(C)C1CCN(c2ccc(Cl)cc2)CC1` (stereo not drawn) was 2.45%.
For `COc1ccc(N2CCC(N(C)C(=O)C(C)SC)CC2)cc1` (stereo not drawn), the cytotoxicity at 70.5 h is -6.26%.
Consider `CCC(CNC(=O)NC1CCN(C)CC1)Oc1ccccc1Cl` (stereo not drawn), for which the cytotoxicity at 70.5 h came to 30.5%.
As for `O=C(NCc1csc2ccccc12)NCC1(O)CCSC1` (stereo not drawn), the figure is -2.26%; as for `FC(F)Sc1ccc(NCc2nnc(C3CC3)o2)cc1`, -4.17%; as for `COc1ccnc(NC(=O)c2cscn2)c1`, -10.4%.
Consider `CN(Cc1ccc2c(c1)OCO2)Cc1nc(Cc2ccccc2)no1`, for which the cytotoxicity at 70.5 h was -5.91%.
As to `CCOC(C)c1noc(CN2CCN(c3ccncc3)CC2)n1` (stereo not drawn), the cytotoxicity at 70.5 h was -6.31%.
As to `CCOC(C)c1noc(CN2CCCNCC2)n1` (stereo not drawn), the cytotoxicity at 70.5 h was -5.58%.
Regarding `CCOC(C)c1noc(CN2CCN(Cc3cccnc3)CC2)n1` (stereo not drawn), the cytotoxicity at 70.5 h stood at 34.3%.
As to `O=C(CN1CCC[C@H]1C(=O)O)NCCOc1cccc(Cl)c1`, the cytotoxicity at 70.5 h is -1.34%.
`CCOC(=O)c1ccccc1NC(=O)CN(C)Cc1ccccc1Cl`: the cytotoxicity at 70.5 h worked out at 3.31%.

The values are drawn from ChEMBL document CHEMBL3507680, “University of Dundee, Gates Library screen for HepG2 cell viability”.
